Literature values as cited in patent US6433221B1 (RPC Inc., priority 1998, dated 2002).
Where two headings read alike, the source gives them in different places.

Experiments:
[1] = cyclohexanone in water; for mol % H2O: balance
[2] = water in cyclohexanone; for mol % CHxO: balance

For `O=C1CCCCC1` [Cyclohexanone], the “mol % CHxO” value ([1]; 20 °C) is given as 1.98% mol %, the “wt % CHxO” value ([1]; 20 °C) is given as 10.00% wt % and the “mol % H2O” value ([1]; 20 °C) is given as 98.02% mol %. For the same compound, the “mol % CHxO” value ([1]; 25 °C) was 1.85% mol %, the “wt % CHxO” value ([1]; 25 °C) was 9.39% wt % and the “mol % H2O” value ([1]; 25 °C) was 98.15% mol %. For the same compound, the “mol % CHxO” value ([1]; 30 °C) was 1.73% mol %, the “wt % CHxO” value ([1]; 30 °C) was 8.83% wt % and the “mol % H2O” value ([1]; 30 °C) was 98.27% mol %. The “mol % CHxO” value ([1]; 50 °C) was 1.43% mol %, the “wt % CHxO” value ([1]; 50 °C) was 7.39% wt % and the “mol % H2O” value ([1]; 50 °C) was 98.57% mol %. For the same compound, the “mol % CHxO” value ([1]; 70 °C) was 1.34% mol %, the “wt % CHxO” value ([1]; 70 °C) was 6.95% wt % and the “mol % H2O” value ([1]; 70 °C) was 98.66% mol %. The “mol % CHxO” value ([1]; 90 °C) was 1.44% mol %, the “wt % CHxO” value ([1]; 90 °C) was 7.44% wt % and the “mol % H2O” value ([1]; 90 °C) was 98.56% mol %.

In the case of `O` [Water], the “mol % H2O” value ([2]; 20 °C) is given as 25.1% mol %, the “wt % H2O” value ([2]; 20 °C) is given as 5.7% wt % and the “mol % CHxO” value ([2]; 20 °C) is given as 74.9% mol %. For the same compound, the “wt % H2O” value ([2]; 20 °C, listed as water) was 5.7 wt %, the “mol % H2O” value ([2]; 25 °C) was 25.6% mol % and the “wt % H2O” value ([2]; 25 °C) was 5.9% wt %. The “mol % CHxO” value ([2]; 25 °C) was 74.4% mol %, the “mol % H2O” value ([2]; 30 °C) was 26.1% mol % and the “wt % H2O” value ([2]; 30 °C) was 6.0% wt %. For the same compound, the “mol % CHxO” value ([2]; 30 °C) was 73.9% mol %, the “mol % H2O” value ([2]; 50 °C) was 28.7% mol % and the “wt % H2O” value ([2]; 50 °C) was 6.8% wt %. The “mol % CHxO” value ([2]; 50 °C) was 71.3% mol %, the “mol % H2O” value ([2]; 70 °C) was 32.6% mol % and the “wt % H2O” value ([2]; 70 °C) was 8.1% wt %. For the same compound, the “mol % CHxO” value ([2]; 70 °C) was 67.4% mol %, the “mol % H2O” value ([2]; 90 °C) was 38.5% mol % and the “wt % H2O” value ([2]; 90 °C) was 10.2% wt %. For the same compound, the “mol % CHxO” value ([2]; 90 °C) was 61.5% mol %.
